Experimental data taken from patent publication US20130266636A1, “METHODS FOR BLOCKING CELL PROLIFERATION AND TREATING DISEASES AND CONDITIONS RESPONSIVE TO CELL GROWTH INHIBITION” (THE REGENTS OF THE UNIVERSITY OF CALIFORNIA, priority 2010, published 2013).

Tests used:
phospho-S338 CRAF = molecular target: T1, phospho-S338 CRAF (Homo sapiens, UniProt P04049); test: Phospho-S338 CRAF staining in orthotopic brain tumor xenografts; type: in vivo, mice; details: systemic KG5 50 mg/Kg, 3 days
T1 construct: phospho-S338 CRAF in orthotopic brain tumor xenografts untreated or treated systemically with KG5; from tissue; host or cells: orthotopic U-87 glioblastoma xenografts in the brain of nude mice
T1 sequence (P04049 whole entry): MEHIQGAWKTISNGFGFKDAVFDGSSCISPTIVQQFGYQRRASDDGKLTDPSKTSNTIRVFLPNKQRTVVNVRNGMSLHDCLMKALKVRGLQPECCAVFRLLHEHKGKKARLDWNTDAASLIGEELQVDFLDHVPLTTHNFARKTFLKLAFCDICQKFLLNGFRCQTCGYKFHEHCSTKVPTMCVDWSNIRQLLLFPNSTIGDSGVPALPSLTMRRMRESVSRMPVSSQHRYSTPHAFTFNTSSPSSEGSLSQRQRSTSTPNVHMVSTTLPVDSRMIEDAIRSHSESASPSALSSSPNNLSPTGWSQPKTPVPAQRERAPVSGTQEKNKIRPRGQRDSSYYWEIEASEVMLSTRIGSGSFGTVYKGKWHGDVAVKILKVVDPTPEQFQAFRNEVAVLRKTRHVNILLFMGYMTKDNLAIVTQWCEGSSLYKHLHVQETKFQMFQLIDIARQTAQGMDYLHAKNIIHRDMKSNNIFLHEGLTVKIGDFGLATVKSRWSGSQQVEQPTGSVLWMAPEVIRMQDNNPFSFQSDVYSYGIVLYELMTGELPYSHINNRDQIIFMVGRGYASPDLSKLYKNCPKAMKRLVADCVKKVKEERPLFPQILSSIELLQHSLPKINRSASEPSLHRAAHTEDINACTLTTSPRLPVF
Experimental: FIG. 41. Phospho-5338 CRAF is highly expressed in tumors and can be blocked by an allosteric RAF inhibitor: FIG. 41(a) Immunohistochemical staining of phospho-S338 CRAF in normal human brain and human glioblastoma tissues. Scale bar, 100 μm. FIG. 41(b) Immunohistochemical staining of phospho-S338 CRAF in orthotopic brain tumor xenografts untreated or treated systemically with KG5 (50 mg/Kg) for 3 days. Scale bar, 50 p.m. FIG. 42. Phospho-5338 CRAF promotes mitosis: FIG. 42(a) Quantification of WT and CRAF−/− cells in the G1, S and G2/M phases of the cell cycle. Data are representative of three independent experiments. […] Cells in G2/M were quantified by flow cytometry. […] FIG. 42(d) Cells at pro-metaphase were quantified using confocal microscopy. […] FIG. 42(e) HCT-116 cells were transfected with control or CRAF siRNAs and cells in G2/M were quantified by flow cytometry. […] Lysates of these cells were analyzed for CRAF expression by immunoblotting (inset). […] Quantification of cells in G2/M was performed by flow cytometry. […]
Tumors were generated by injection of RFP-labeled U-87 human glioblastoma cells (10^5 tumorcells in 2 μl of sterile PBS) into the brain of 6-8 week old female nude mice. […] Brains were harvested at day 15 and fluorescence images recorded using the IVIS-200™ imaging system (Xenogen Corp., Hopkinton, Mass.). […]

[1] = molecular target: T2, phospho-S338 c-RAF (CRAF) (Homo sapiens, UniProt P04049); test: Phospho-S338 CRAF staining in orthotopic MDA-MB-231 breast cancer tissues; type: in vivo, mice; details: systemic KG5 50 mg/kg i.p. bid, 3 days
T2 construct: immunofluorescent staining of phospho-S338 c-RAF (CRAF) in orthotopic breast cancer tissues untreated or systemically treated with KG5; from tissue; host or cells: orthotopic MDA-MB-231 tumours in nude mice
T2 sequence (P04049 whole entry): as above
Experimental: FIG. 4 illustrates the effect of KG5 on orthotopic MDA-MB-231 breast cancer cells after three days, as further discussed in Example 1, below.
FIG. 4 illustrates an immunofluorescent staining of phospho-S338 c-RAF (CRAF) in orthotopic breast cancer tissues untreated or systemically treated with KG5 for 3 days.
Tumors were generated by injection of MDA-MB-231 human breast carcinoma cells (2×10^6 tumor cells in 50 μl of sterile PBS) into the mammary fatpad of 6-8 week old female nude mice. Tumors were established for 2 weeks before beginning dosing. Mice were dosed with vehicle (10% HS-15) or 50 mg/kg KG5 (i.p. bid) for 3 days prior to harvest. All research was conducted under protocols approved by the UCSD animal subjects committee and in accordance with the guidelines set forth in the NIH Guide for the Care and Use of Laboratory Animals.
Immunostaining was performed according to the manufacturer's recommendations (Vector Labs), on […] sections of paraffin-embedded tumors from the orthotopic xenograft breast and brain cancer mouse models, the subcutaneous tumor mouse model or from human patients diagnosed with breast or brain cancer (as approved by the Institutional Review Board at University of California, San Diego). Antigen retrieval was performed in citrate buffer pH 6.0 at 95° C. for 20 min. […]

Q: How did the “phospho-S338 CRAF in orthotopic brain tumor tissues” value (phospho-S338 CRAF) turn out when `CSc1nc(N)cc(Oc2ccc(-c3nnc(Nc4cccc(C(F)(F)F)c4)[nH]3)cc2)n1` [KG5] was run?
A: qualitative decrease in phospho-5338 RAF

Q: And the “phospho-S338 CRAF in orthotopic breast cancer tissues” value [1]?
A: qualitative decrease in phospho-5338 RAF

Q: And the “phospho-S338 CRAF in orthotopic breast cancer tissues” value ([1]; 50 mg/kg)?
A: inhibits serine 338 phosphorylation of CRAF
